Laboratory results published in US8962576B2, “Compositions and method for improving endothelial function and cardiovascular health” (Natreon, Inc., priority 2012, dated 2015).
Values joined by “and” are separate entries in the source; they are usually repeats but may differ in a detail not shown here. Equal entries are not always repeated.

Key:
Assay type in all cases: in vivo, human
Type 2 Diabetic Subjects [1] = assay: Marker of endothelial function: reflection index (RI), study (c); conditions: CAPROS 250 mg twice daily, Atorvastatin 10 mg daily, n = 20
Text: (§1) A salbutamol (albuterol) challenge test employing digital volume plethysmography was used to assess endothelial function as reported by Chowienczyk et al., “Photoplethysmographic assessment of pulse wave reflection: blunted response to endothelium dependant beta 2-adrenergic vasodilation in type 2 diabetes mellitus,” J. Am. Coll. Cardiol. (1999 December) 34(7):2007-14; and Naidu, et al., “Comparison of two β2 adrenoceptor agonists by different routes of administration to assess human endothelial function,” Indian J. Pharmacol. (2007) 39:168-9. The patients were examined in supine position after 5 minutes of rest. A digital volume pulse (DVP) was obtained using a photo plethysmograph (Pulse Trace PCA2, PT200, Micro Medical, Gallingham, Kent, UK) transmitting infrared light at 940 nm, placed on the index finger of the right hand. The signal from the plethysmograph was digitized using a 12 bit analogue to digital converter with a sampling frequency of 100 Hz. DVP waveforms were recorded over 20 second period and the height of the late systolic/early diastolic portion of the DVP was expressed as a percentage of the amplitude of the DVP to yield the reflection index (RI), per the procedure described in detail by Millasseau et al., “Determination of age related increases in large artery stiffness by digital pulse contour analysis,” Clinical Science (2002) 103: 371-377. Three DVP recordings were taken, and measurements of reflection index (RI) were calculated and the mean value was determined. Patients were then administered 400 μg of salbutamol by inhalation. After 15 minutes three measurements of RI were obtained again and the difference in mean RI before and after administration of salbutamol was used for assessing endothelial function. A change of ≦6% in RI post-salbutamol was considered as endothelial dysfunction.
Study (c) design. […]

Type 2 Diabetic Subjects [2] = assay: Biomarkers of oxidative stress and hsCRP, study (c); conditions: CAPROS 250 mg twice daily, Atorvastatin 10 mg daily, n = 20
Method: Malondialdehyde (MDA) levels were determined as described in Vidyasagar, et al., “Oxidative stress and antioxidant status in acute organophosphorous insecticide poisoning,” Indian J. Pharmacol. (April 2004) 36(2): 76-79. Glutathione levels were determined as described in G. L. Ellman, Arch. Biochem. Biophys. (1959) 82: 70-77 (original determination). Nitric oxide levels were estimated spectrophotometrically as described in Miranda, et al., “A Rapid, Simple Spectrophotometric Method for Simultaneous Detection of Nitrate and Nitrite,” NITRIC OXIDE: Biology and Chemistry (2001) Vol. 5, No. 1, pp. 62-71.
After screening, all the eligible subjects were randomized to receive either one of the four treatments for a duration of 12 weeks, as follows.
Nitric oxide, MDA, Glutathione (GSH) and levels thereof were estimated spectrophotometrically as described above, and HsCRP (high sensitivity C-reactive protein) by ELISA method.

Type 2 Diabetic Subjects [3] = assay: Endothelial function: reflection index (RI), salbutamol challenge test, study (a); conditions: Sensoril or Capros 250 mg twice daily, Atorvastatin 10 mg at night; for Abs Change in RI(%) Post Salbutamol challenge: n = 10
Text: Procedure for Assessment of Endothelial Function by Determination of Reflection Index (RI).
as §1

Type 2 Diabetic Subjects [4] = assay: Lipid profile, study (a), 12 weeks treatment; conditions: Sensoril or Capros 250 mg twice daily, Atorvastatin 10 mg at night, n = 10
Method: Study (a) design. Patients of either sex, aged 18-75 years, fasting plasma glucose of ≧110 mg/dL, a glycosylated hemoglobin (HbA1c) between 7% and 10% and taking stable doses of anti-diabetic treatment for the past 8 weeks prior to the screening visit; and having endothelial dysfunction defined as ≦6% change in reflection index (RI) on post salbutamol challenge test were included in the study. Patients with severe uncontrolled hyperglycaemia, uncontrolled hypertension, cardiac arrhythmia, impaired hepatic or renal function, history of malignancy or stroke, smoking, chronic alcoholism, any other serious disease requiring active treatment and treatment with any other herbal supplements, were excluded from the study. Pregnant and lactating women were also excluded.
All the eligible subjects were randomized to receive either one of the four treatments for duration of 12 weeks. There were ten (10) subjects per group. […] Subjects were asked to revisit for follow up at 4, 8 and 12 weeks of therapy. At each visit they were evaluated for efficacy and safety. Pharmacodynamic evaluation for endothelial function was conducted at every visit. Blood samples were collected for evaluation of biomarkers before and at the end of treatment. Safety lab investigations were conducted before and at the end of the study and as and when required in case of any adverse drug reaction (ADR). Subjects were examiner and/or surveyed for the presence of ADR and the same was recorded in the case report form. Compliance was assessed by pill count method.
All the subjects had undergone complete physical examination, safety lab evaluations at baseline, i.e., prior to treatment, and at the end of the treatment. Samples were collected after an overnight fast of 12 hrs after the last dose of medication for determination of haemoglobin level, glycosylated hemoglobin (HbA1c), urea and creatinine levels, liver function, and lipid profile (total cholesterol, high density lipoprotein cholesterol (HDL-C), and low density lipoprotein cholesterol (LDL-C)). Plasma glucose, liver function test, blood urea, serum creatinine and HbA1c were measured using appropriate standard techniques.

CC(C)c1c(C(=O)Nc2ccccc2)c(-c2ccccc2)c(-c2ccc(F)cc2)n1CC[C@@H](O)C[C@@H](O)CC(=O)O [Atorvastatin]
Absolute change in RI (Type 2 Diabetic Subjects [1]; 12 weeks): −8.35 ± 4.17% | RI(%), Mean (Type 2 Diabetic Subjects [1]; Post TT, 12 weeks): −11.03$ % | RI(%), Mean (Type 2 Diabetic Subjects [1]; Pre TT): −2.68% | Absolute change in MDA (Type 2 Diabetic Subjects [2]; 12 weeks): −1.17 ± 0.75 nM/ml | Absolute change in NO (Type 2 Diabetic Subjects [2]; 12 weeks): 28.45 ± 12.30 μM/L | Absolute change in hsCRP (Type 2 Diabetic Subjects [2]; 12 weeks): −2.10 ± 1.26 Mg/L | Mean percentage change in MDA (Type 2 Diabetic Subjects [2]; 12 weeks): −30.55 ± 19.81% | Mean percentage change in NO (Type 2 Diabetic Subjects [2]; 12 weeks): 88.44 ± 50.97% | Mean percentage change in hsCRP (Type 2 Diabetic Subjects [2]; 12 weeks): −64.90 ± 26.99% | MDA (Type 2 Diabetic Subjects [2]; Post TT, 12 weeks): 2.37 ± 0.59 nM/ml | NO (Type 2 Diabetic Subjects [2]; Post TT, 12 weeks): 63.69 ± 15.04 μM/L | hsCRP (Type 2 Diabetic Subjects [2]; Post TT, 12 weeks): 0.97 ± 0.78 Mg/L | MDA (Type 2 Diabetic Subjects [2]; Pre TT): 3.54 ± 0.85 nM/ml | NO (Type 2 Diabetic Subjects [2]; Pre TT): 35.24 ± 9.71 μM/L | hsCRP (Type 2 Diabetic Subjects [2]; Pre TT): 3.08 ± 1.38 Mg/L | Abs Change in RI(%) Post Salbutamol challenge (Type 2 Diabetic Subjects [3]; Post treatment, 12 weeks): −11.04% and −11.04 ± 5.48 % | Abs Change in RI(%) Post Salbutamol challenge (Type 2 Diabetic Subjects [3]; Pre treatment): −2.45% and −2.45 ± 0.64% | Mean % change in Abs Change in RI (%) Post Salbutamol challenge (Type 2 Diabetic Subjects [3]; after 12 weeks of treatment): 336.1 ± 235.2% | HDL-C (Type 2 Diabetic Subjects [4]; Post treatment, 12 weeks): 48.2±6.01 mg/dL and 48.2 ± 6.01$ mg/dL | LDL-C (Type 2 Diabetic Subjects [4]; Post treatment, 12 weeks): 87.6 ± 19.07 mg/dL | Total Cholesterol (Type 2 Diabetic Subjects [4]; Post treatment, 12 weeks): 146 ± 24.52 mg/dL | Triglycerides (Type 2 Diabetic Subjects [4]; Post treatment, 12 weeks): 102.8 ± 40.61 mg/dL | HDL-C (Type 2 Diabetic Subjects [4]; Pre treatment): 42.77 ± 6.13 mg/dL | LDL-C (Type 2 Diabetic Subjects [4]; Pre treatment): 133.2 ± 38.09 mg/dL | Total Cholesterol (Type 2 Diabetic Subjects [4]; Pre treatment): 185.7 ± 36.38 mg/dL | Triglycerides (Type 2 Diabetic Subjects [4]; Pre treatment): 169.1 ± 67.51 mg/dL
